Drawing on patent publication US8916206B2, “Nanoparticles containing water-soluble non-peptide low-molecular weight drug” (LTT Bio-Pharma Co., Ltd., priority 2005, dated 2014), this text covers Inflammation rate for 1 compound.

Test [1] concerns adjuvant arthritis rats. The experiment in a line: Suppression of adjuvant arthritis, Example 5 (left hind leg volume, water displacement). Format: in vivo, Lewis rats. The settings on record: average of 4 rats. On the procedure: (§1) Fifty microliters of an incomplete Freund's adjuvant solution (DIFCO) containing 6 mg/mL of M. Butyricum Dessicated (DIFCO) was subcutaneously injected into the left hind paw of 7-week-old Lewis rats, weighing 130 to 160 g, under anesthesia with ether. The animals were divided into groups so that there is no significant difference in the volume of the left hind leg between the groups. 14 days after administration of M. Butyricum, one group was intravenously administered a single dose of the nanoparticles of the present invention encapsulating betamethasone phosphate (equivalent to 50 μg betamethasone). As controls, other groups were intravenously administered the same amount of an aqueous betamethasone phosphate solution or the PLA nanoparticles encapsulating betamethasone phosphate (nanoparticles described in Example 2 of International Patent Publication No. WO 2004/84871), each administered in a single dose.
(§2) The ability of the nanoparticles to suppress arthritic inflammation was analyzed by the water displacement technique by measuring the volume of the left hind legs before and after the administration of the nanoparticles.
(§3) Inflammation rate shown in Table 6 was determined with respect to the leg volume of the control group (=100) and calculated by the following equation: Inflammation rate(%)=(measured leg volume−leg volume without adjuvant)/(initial leg volume−leg volume without adjuvant)×100
Each inflammation rate is the average of 4 rats.

Test [2] deals with adjuvant arthritis rats. The experiment in a line: Suppression of adjuvant arthritis, Example 9 (left hind leg volume, water displacement). The class given is in vivo, Lewis rats. Conditions: average of 7 rats. On the procedure: as §1, §2, §3
As in Example 5, the ability of nanoparticles to suppress adjuvant arthritis was evaluated. Each inflammation rate is the average of 7 rats. Nanoparticles of the present invention containing betamethasone phosphate equivalent to 40 μg betamethasone were intravenously administered in a single dose.
As a control, another group of rats was intravenously administered the same amount of an aqueous solution of betamethasone phosphate in a single dose.

As to `C[C@H]1C[C@H]2[C@@H]3CCC4=CC(=O)C=C[C@]4(C)[C@@]3(F)[C@@H](O)C[C@]2(C)[C@@]1(O)C(=O)COP(=O)(O)O` [betamethasone phosphate], the Inflammation rate came to 83% in test [1] (1 day after single i.v. dose equivalent to 50 μg betamethasone); 80% in test [1] (2 days after single i.v. dose equivalent to 50 μg betamethasone); 82% in test [1] (3 days after single i.v. dose equivalent to 50 μg betamethasone); 83% in test [1] (4 days after single i.v. dose equivalent to 50 μg betamethasone); 84% in test [1] (6 days after single i.v. dose equivalent to 50 μg betamethasone); 81% in test [1] (8 days after single i.v. dose equivalent to 50 μg betamethasone). Further, the Inflammation rate was 81% in test [2] (1 day after single i.v. dose equivalent to 40 μg betamethasone); 83% in test [2] (2 days after single i.v. dose equivalent to 40 μg betamethasone); 83% in test [2] (3 days after single i.v. dose equivalent to 40 μg betamethasone); 78% in test [2] (4 days after single i.v. dose equivalent to 40 μg betamethasone); 78% in test [2] (5 days after single i.v. dose equivalent to 40 μg betamethasone); 79% in test [2] (7 days after single i.v. dose equivalent to 40 μg betamethasone). In addition, the Inflammation rate in test [2] (9 days after single i.v. dose equivalent to 40 μg betamethasone) is 79%.
